Measurements as given in ChEMBL document CHEMBL5247626, “In vitro and in vivo biological evaluation of newly synthesized multi-target 20(R)-panaxadiol derivatives for treating Alzheimer's disease” (Eur J Med Chem, 2022).
The source made the active and inactive calls. No cut-off for these calls is given here.

Columns and labels:
PC-12 [1] = assay: Neuroprotective activity against amyloid beta (25 to 35)-induced rat PC12 cells assessed as reduction in amyloid beta (25 to 35)-induced apoptosis rate at 15 uM incubated for 15 mins by Annexin V-FITC/PI staining based flow cytometric analysis (reference value: 2.9%); type: functional; set-up: scale not given: the % may be the effect or the level left; settings: 0.25 h
PC-12 [2] = assay: Neuroprotective activity against amyloid beta (25 to 35)-induced rat PC12 cells assessed as decrease in tau hyperphosphorylation at Thr181 at 15 uM preincubated for 30 mins followed by amyloid beta (25 to 35) addition and measured after 24 hrs by western blot assay; type: functional, cell-based; settings: time 24.5 hrs
PC-12 [3] = assay: Neuroprotective activity against amyloid beta (25 to 35)-induced rat PC12 cells assessed as decrease in total tau protein expression level at 15 uM preincubated for 30 mins followed by amyloid beta (25 to 35) addition and measured after 24 hrs by western blot assay; type: functional, cell-based; settings: time 24.5 hrs
PC-12 [4] = assay: Neuroprotective activity against amyloid beta (25 to 35)-induced rat PC12 cells assessed as decrease in intracellular ROS level at 7.5 uM incubated for 24 hrs by DCFH-DA staining based flow cytometry assay; type: functional, cell-based
[5] = Permeability of the compound incubated for 4 hrs by PAMPA-BBB assay based HPLC analysis
Mus musculus [6] = assay: Antialzheimer activity against amyloid beta (25 to 35)-induced spatial memory deficit ICR mouse model assessed as increase in distance travelled in target quadrant at 1.3 mg/kg,po observed at 16 to 20 days of administration by morris water maze test; type: functional, organism-based; settings: time 16-20 day
Mus musculus [7] = assay: Antialzheimer activity against amyloid beta (25 to 35)-induced cognitive deficit ICR mouse model assessed as increase in preferential index at 1.3 mg/kg,po observed after 24 hrs of administration by novel object recognition test; type: functional, organism-based
Mus musculus [8] = assay: Antialzheimer activity against amyloid beta (25 to 35)-induced cognitive deficit ICR mouse model assessed as attenuation of behavioral deficit at 1.3 mg/kg,po observed after 12 to 15 days of administration by Y maze test; type: functional, organism-based; settings: time 12-15 day
Mus musculus [9] = assay: Antialzheimer activity against amyloid beta (25 to 35)-induced cognitive deficit ICR mouse model assessed as increase in discrimination index at 1.3 mg/kg,po observed after 1 hr of administration by novel object recognition test; type: functional, organism-based
Mus musculus [10] = assay: Antialzheimer activity against amyloid beta (25 to 35)-induced cognitive deficit ICR mouse model assessed as increase in preferential index at 1.3 mg/kg,po observed after 1 hr of administration by novel object recognition test; type: functional, organism-based
Mus musculus [11] = assay: Antialzheimer activity against amyloid beta (25 to 35)-induced cognitive deficit ICR mouse model assessed as effect on total number of arm enteries at 1.3 mg/kg,po observed after 11 days of administration by Y maze test; type: functional, organism-based; settings: time 11.0 day
Mus musculus [12] = assay: Antialzheimer activity against amyloid beta (25 to 35)-induced spatial memory deficit ICR mouse model assessed as increase in exploration time spent at 1.3 mg/kg,po observed at 16 to 20 days of administration by morris water maze test; type: functional, organism-based; settings: time 16-20 day
Mus musculus [13] = assay: Antialzheimer activity against amyloid beta (25 to 35)-induced cognitive deficit ICR mouse model assessed as increase in discrimination index at 1.3 mg/kg,po observed after 24 hrs of administration by novel object recognition test; type: functional, organism-based
[14] = target: Amyloid-beta precursor protein (Homo sapiens) (UniProt P05067); assay: Disaggregation of amyloid beta (25 to 35) (unknown origin) self aggregation at 15 uM incubated for 24 hrs by transmission electron microscopy analysis
Amyloid-beta precursor protein (Homo sapiens), sequence (P05067 whole entry): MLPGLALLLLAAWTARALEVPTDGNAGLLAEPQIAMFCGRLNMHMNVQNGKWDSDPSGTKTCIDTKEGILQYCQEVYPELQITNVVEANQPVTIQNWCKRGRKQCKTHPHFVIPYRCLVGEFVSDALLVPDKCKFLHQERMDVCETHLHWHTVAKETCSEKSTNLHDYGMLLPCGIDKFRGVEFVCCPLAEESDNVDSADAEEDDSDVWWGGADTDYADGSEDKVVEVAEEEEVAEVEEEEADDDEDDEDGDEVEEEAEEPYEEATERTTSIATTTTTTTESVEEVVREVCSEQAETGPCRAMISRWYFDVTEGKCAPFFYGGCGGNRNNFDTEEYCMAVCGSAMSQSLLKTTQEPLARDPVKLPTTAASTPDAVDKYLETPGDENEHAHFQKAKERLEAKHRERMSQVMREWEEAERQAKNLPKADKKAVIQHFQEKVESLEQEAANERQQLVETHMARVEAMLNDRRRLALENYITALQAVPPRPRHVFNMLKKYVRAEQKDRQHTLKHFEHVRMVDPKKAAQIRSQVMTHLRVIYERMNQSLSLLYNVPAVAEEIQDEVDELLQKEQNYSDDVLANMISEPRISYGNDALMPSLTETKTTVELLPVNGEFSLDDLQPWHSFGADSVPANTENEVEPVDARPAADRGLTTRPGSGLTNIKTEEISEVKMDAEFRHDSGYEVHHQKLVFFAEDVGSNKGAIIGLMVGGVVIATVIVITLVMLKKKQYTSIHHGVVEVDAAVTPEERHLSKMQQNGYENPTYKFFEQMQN

PC-12 [15] = assay: Neuroprotective activity against rat PC12 cells assessed as reduction in amyloid beta (25 to 35)-induced cytotoxicity at 15 uM incubated for 4 hrs followed by amyloid beta (25 to 35) treatment for 24 hrs by MTT assay relative to control; type: functional; set-up: scale not given: the % may be the effect or the level left; settings: time 28 hrs

CC1(C)CCC[C@](C)([C@H]2CC[C@]3(C)[C@@H]2[C@H](O)C[C@@H]2[C@@]4(C)CC[C@H](O)C(C)(C)[C@@H]4CC[C@]23C)O1 [PANAXADIOL]
Activity (PC-12 [1]): 5.4%
Activity (PC-12 [2]): Active
Activity (PC-12 [3]): Active
Activity (PC-12 [4]): Active

NC(=O)N1c2ccccc2C=Cc2ccccc21 [CARBAMAZEPINE]
Papp at 4 h [5]: 8.78 ×10⁻⁶ cm/s

COc1cc2c(cc1OC)C(=O)C(CC1CCN(Cc3ccccc3)CC1)C2 (stereo not drawn)
Activity (Mus musculus [6]): Active
Activity (Mus musculus [7]): Active
Activity (PC-12 [2]): Active
Activity (Mus musculus [8]): Active
Activity (PC-12 [3]): Active
Activity (Mus musculus [9]): inactive
Activity (Mus musculus [10]): inactive
Activity (Mus musculus [11]): inactive
Activity (Mus musculus [12]): Active
Activity (Mus musculus [13]): Active

COc1cc(/C=C/C(=O)CC(=O)/C=C/c2ccc(O)c(OC)c2)ccc1O
Activity [14]: Active

Cc1ccc(NC(=O)O[C@H]2CC[C@]3(C)[C@H]4C[C@@H](O)[C@@H]5[C@@H]([C@@]6(C)CCCC(C)(C)O6)CC[C@@]5(C)[C@]4(C)CC[C@H]3C2(C)C)cc1
Activity (PC-12 [15]): 64.13%

COC(=O)[C@@H](CC(C)C)NC(=O)CCC(=O)O[C@H]1CC[C@]2(C)[C@H]3C[C@@H](O)[C@@H]4[C@@H]([C@@]5(C)CCCC(C)(C)O5)CC[C@@]4(C)[C@]3(C)CC[C@H]2C1(C)C
Activity (PC-12 [15]): 16.07%
